Results taken from PMC12361428 (Nature Communications, 2025).
Positions count from the first letter of the chain named. Values joined by “and” are separate entries in the source; they are usually repeats but may differ in a detail not shown here. Equal entries are not always repeated. “Also recorded” adds a separate entry of the source.

What was measured:
A3AR H272A^7.43 = target: T1, A3AR H272A^7.43 (Homo sapiens, UniProt P0DMS8, H272A); test: Gαi1 activation, TruPath BRET assay in HEK293a cells; type: cell-based
T1 construct: expressed in transfected cells; host or cells: HEK293a
T1 sequence (P0DMS8 1-318 H272A): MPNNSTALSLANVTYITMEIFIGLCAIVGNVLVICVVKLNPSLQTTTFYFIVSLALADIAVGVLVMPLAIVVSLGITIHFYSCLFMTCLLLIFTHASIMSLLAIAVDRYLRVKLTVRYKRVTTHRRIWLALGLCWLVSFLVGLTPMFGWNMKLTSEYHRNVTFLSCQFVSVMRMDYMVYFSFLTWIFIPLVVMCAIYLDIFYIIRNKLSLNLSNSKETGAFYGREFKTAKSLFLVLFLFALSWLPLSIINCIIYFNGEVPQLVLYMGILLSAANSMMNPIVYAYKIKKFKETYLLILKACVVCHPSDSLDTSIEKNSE
Description: (§1) PEI was added at a 6:1 PEI-to-DNA ratio. Two days post-transfection, plates were washed twice with BRET buffer (HBSS with 10 mM HEPES, pH 7.4). After a 30-min incubation at 37 °C, plates were placed in a PHERAstar plate reader at 37 °C, and four baseline readings were taken using BRET2 filters at 410 ± 80 nm and 515 ± 30 nm. […] BRET2 ratios were calculated as the ratio of GFP2 emission (515 ± 30 nm) to RLuc8 emission (410 ± 80 nm).
(§2) Data were expressed as the mean ± standard error. All binding and Trupath data were analysed using the nonlinear regression curve-fitting programme with Prism 10 (GraphPad, San Diego, CA, USA). For nanoBRET saturation binding experiments, specific binding was calculated by subtracting non-specific binding (defined as binding in the presence of 10 µM MRS1220) from total binding. Specific binding data in each experiment were then normalised to the maximal binding (Bmax) of WT and fit to a one-site specific binding equation: Y =Bmax*[X]/(Kd + [X]). For nanoBRET competition binding experiments, data were normalised to total and non-specific binding responses and fit to a one-site—Fit Ki equation. Trupath's experimental data was baseline-corrected to the initial four baseline reads and then adjusted to the buffer control response. The area under the curve (AUC) for each response was calculated and plotted with a non-linear regression curve (log[agonist] vs response, three-parameter model), using the equation: Y = Bottom + (Top–Bottom)/(1 + 10^((LogEC50-X))). Here, X represents the log dose of the agonist, Y is the BRET2 AUC response, Top and Bottom are the curve plateaus, and EC50 is the agonist concentration yielding a response halfway between the Bottom and Top values. To determine efficacy values. The efficacy of the agonists (τA) was separately calculated using the Black–Leff operational model of agonism[79] using KA values from Table 2 and then corrected for receptor expression relative to WT using Bmax values from Table 1[80]. Significant differences vs WT were determined by one-way ANOVA with a Dunnett’s multiple comparison test. Significance levels are indicated as follows: P ≤ 0.0001****, P = 0.0001–0.001***, P = 0.001–0.01**, and P = 0.01–0.05*.

A3AR H95F^3.37 = target: T2, A3AR H95F^3.37 (Homo sapiens, UniProt P0DMS8, H95F); test: as above; type: cell-based
T2 construct: expressed in transfected cells; host or cells: HEK293a
T2 sequence (P0DMS8 1-318 H95F): T1 sequence (P0DMS8 1-318 H272A) with H95F, A272H
Description: as §1, §2

A3AR Y265A^7.36 = target: T3, A3AR Y265A^7.36 (Homo sapiens, UniProt P0DMS8, Y265A); test: as above; type: cell-based
T3 construct: expressed in transfected cells; host or cells: HEK293a
Description: PEI was added at a 6:1 PEI-to-DNA ratio.
Data were expressed as the mean ± standard error. All binding and Trupath data were analysed using the nonlinear regression curve-fitting programme with Prism 10 (GraphPad, San Diego, CA, USA). For nanoBRET saturation binding experiments, specific binding was calculated by subtracting non-specific binding (defined as binding in the presence of 10 µM MRS1220) from total binding. Specific binding data in each experiment were then normalised to the maximal binding (Bmax) of WT and fit to a one-site specific binding equation: Y =Bmax*[X]/(Kd + [X]). For nanoBRET competition binding experiments, data were normalised to total and non-specific binding responses and fit to a one-site—Fit Ki equation. Trupath's experimental data was baseline-corrected to the initial four baseline reads and then adjusted to the buffer control response. The area under the curve (AUC) for each response was calculated and plotted with a non-linear regression curve (log[agonist] vs response, three-parameter model), using the equation: Y = Bottom + (Top–Bottom)/(1 + 10^((LogEC50-X))). […] Significant differences vs WT were determined by one-way ANOVA with a Dunnett’s multiple comparison test. […]

A3AR N250A^6.55 = target: T4, A3AR N250A^6.55 (Homo sapiens, UniProt P0DMS8, N250A); test: as above; type: cell-based
T4 construct: expressed in transfected cells; host or cells: HEK293a
T4 sequence (P0DMS8 1-318 N250A): T1 sequence (P0DMS8 1-318 H272A) with N250A, A272H
Description: as §1, §2

A3AR WT = target: T5, A3AR WT (Homo sapiens, UniProt P0DMS8); test: as above; type: cell-based
T5 construct: expressed in transfected cells; host or cells: HEK293a
T5 sequence (P0DMS8 1-318): T1 sequence (P0DMS8 1-318 H272A) with A272H
Description: as §1, §2

A3AR M174A^5.35 = target: T6, A3AR M174A^5.35 (Homo sapiens, UniProt P0DMS8, M174A); test: as above; type: cell-based
T6 construct: expressed in transfected cells; host or cells: HEK293a
Description: (§3) Two days post-transfection, plates were washed twice with BRET buffer (HBSS with 10 mM HEPES, pH 7.4). After a 30-min incubation at 37 °C, plates were placed in a PHERAstar plate reader at 37 °C, and four baseline readings were taken using BRET2 filters at 410 ± 80 nm and 515 ± 30 nm. […] BRET2 ratios were calculated as the ratio of GFP2 emission (515 ± 30 nm) to RLuc8 emission (410 ± 80 nm).
(§4) Data were expressed as the mean ± standard error. All binding and Trupath data were analysed using the nonlinear regression curve-fitting programme with Prism 10 (GraphPad, San Diego, CA, USA). […] Trupath's experimental data was baseline-corrected to the initial four baseline reads and then adjusted to the buffer control response. The area under the curve (AUC) for each response was calculated and plotted with a non-linear regression curve (log[agonist] vs response, three-parameter model), using the equation: Y = Bottom + (Top–Bottom)/(1 + 10^((LogEC50-X))). Here, X represents the log dose of the agonist, Y is the BRET2 AUC response, Top and Bottom are the curve plateaus, and EC50 is the agonist concentration yielding a response halfway between the Bottom and Top values. […] Significant differences vs WT were determined by one-way ANOVA with a Dunnett’s multiple comparison test.

A3AR V169E^45.53 = target: T7, A3AR V169E^45.53 (Homo sapiens, UniProt P0DMS8, V169E); test: as above; type: cell-based
T7 construct: expressed in transfected cells; host or cells: HEK293a
Description: as §3, §4

[1] = system: Nluc-tagged hA3AR-BRIL-S97R; test: NanoBRET washout (irreversible binding) assay vs XAC-630
A3AR-BRIL = target: T8, A3AR-BRIL (Homo sapiens, UniProt P0DMS8); test: NanoBRET competition binding vs XAC-630; details: for XAC-630 NanoBRET binding, normalised (Figure S2H), individual replicates: A3AR-BRIL
T8 sequence (P0DMS8 1-318): T1 sequence (P0DMS8 1-318 H272A) with A272H
Description: All experiments were performed in duplicate.
Data were expressed as the mean ± standard error. All binding and Trupath data were analysed using the nonlinear regression curve-fitting programme with Prism 10 (GraphPad, San Diego, CA, USA). For nanoBRET saturation binding experiments, specific binding was calculated by subtracting non-specific binding (defined as binding in the presence of 10 µM MRS1220) from total binding. Specific binding data in each experiment were then normalised to the maximal binding (Bmax) of WT and fit to a one-site specific binding equation: Y =Bmax*[X]/(Kd + [X]). For nanoBRET competition binding experiments, data were normalised to total and non-specific binding responses and fit to a one-site—Fit Ki equation. […] Significant differences vs WT were determined by one-way ANOVA with a Dunnett’s multiple comparison test.

T3 sequence (P0DMS8 whole entry Y265A): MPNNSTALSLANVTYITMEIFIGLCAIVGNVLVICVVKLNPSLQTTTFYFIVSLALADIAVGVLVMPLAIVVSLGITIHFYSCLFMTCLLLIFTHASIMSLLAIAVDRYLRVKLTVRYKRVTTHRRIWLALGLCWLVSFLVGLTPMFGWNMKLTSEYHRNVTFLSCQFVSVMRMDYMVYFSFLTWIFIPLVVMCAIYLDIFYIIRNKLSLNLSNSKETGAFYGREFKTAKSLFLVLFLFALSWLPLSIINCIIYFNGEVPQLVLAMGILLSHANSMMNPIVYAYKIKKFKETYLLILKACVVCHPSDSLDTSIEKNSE
T6 sequence (P0DMS8 whole entry M174A): as the sequence (P0DMS8 whole entry Y265A) above, with M174A, A265Y counted along it
T7 sequence (P0DMS8 whole entry V169E): as the sequence (P0DMS8 whole entry Y265A) above, with V169E, A265Y counted along it

Nc1ncnc2c1ncn2[C@@H]1O[C@H](CO)[C@@H](O)[C@H]1O [Adenosine, adenosine]
log τ (efficacy, operational model, corrected for receptor expression) (A3AR H272A^7.43): N.R. | ∆∆BRET Emax (A3AR H272A^7.43): N.R | Gαi1 activation response (Figure 7F), individual replicates (A3AR H272A^7.43; log [agonist] -3): 0.105 and 0.09941 | Gαi1 activation response (Figure 7F), individual replicates (A3AR H272A^7.43; log [agonist] -4): 0.06736 and 0.02567 and 0.03084 | Gαi1 activation response (Figure 7F), individual replicates (A3AR H272A^7.43; log [agonist] -5): 0.05631 and 0.02851 and 0.01939 | Gαi1 activation response (Figure 7F), individual replicates (A3AR H272A^7.43; log [agonist] -6): 0.03915 and 0.06464 and 0.04347 | Gαi1 activation response (Figure 7F), individual replicates (A3AR H272A^7.43; log [agonist] -7): 0.04202 and 0.01796 and 0.03024 | Gαi1 activation response (Figure 7F), individual replicates (A3AR H272A^7.43; log [agonist] -8): 0.03672 and 0.03614 and 0.07396 | Gαi1 activation response (Figure 7F), individual replicates (A3AR H272A^7.43; log [agonist] -9): 0.03473 and 0.04344 and 0.05169 | log τ (efficacy, operational model, corrected for receptor expression) (A3AR H95F^3.37): N.R. | ∆∆BRET Emax (A3AR H95F^3.37): N.R | Gαi1 activation response (Figure 7F), individual replicates (A3AR H95F^3.37; log [agonist] -3): 0.03876 and 0.1313 and 0.08684 | Gαi1 activation response (Figure 7F), individual replicates (A3AR H95F^3.37; log [agonist] -4): 0.03491 and 0.05099 and 0.06294 | Gαi1 activation response (Figure 7F), individual replicates (A3AR H95F^3.37; log [agonist] -5): 0.01638 and 0.04515 and 0.03044 | Gαi1 activation response (Figure 7F), individual replicates (A3AR H95F^3.37; log [agonist] -6): 0.01795 and 0.02273 and 0.02037 | Gαi1 activation response (Figure 7F), individual replicates (A3AR H95F^3.37; log [agonist] -7): 0.02917 and 0.01651 and 0.04473 | Gαi1 activation response (Figure 7F), individual replicates (A3AR H95F^3.37; log [agonist] -8): 0.01844 and 0.06153 and 0.04217 | Gαi1 activation response (Figure 7F), individual replicates (A3AR H95F^3.37; log [agonist] -9): 0.02564 and 0.03775 and 0.0773 | log τ (efficacy, operational model, corrected for receptor expression) (A3AR Y265A^7.36): 1.4 ± 0.07 | ∆∆BRET Emax (A3AR Y265A^7.36): 1.25 ± 0.04 | log τ (efficacy, operational model, corrected for receptor expression) (A3AR N250A^6.55): N.R. | ∆∆BRET Emax (A3AR N250A^6.55): N.R | Gαi1 activation response (Figure 7F), individual replicates (A3AR N250A^6.55; log [agonist] -3): 0.1982 and 0.05834 and 0.1787 | Gαi1 activation response (Figure 7F), individual replicates (A3AR N250A^6.55; log [agonist] -4): 0.07983 and 0.02674 and 0.09536 | Gαi1 activation response (Figure 7F), individual replicates (A3AR N250A^6.55; log [agonist] -6): 0.1133 and 0.01975 | Gαi1 activation response (Figure 7F), individual replicates (A3AR N250A^6.55; log [agonist] -7): 0.04263 and 0.06697 and 0.05413 | Gαi1 activation response (Figure 7F), individual replicates (A3AR N250A^6.55; log [agonist] -8): 0.04211 and 0.09403 and 0.02948 | Gαi1 activation response (Figure 7F), individual replicates (A3AR N250A^6.55; log [agonist] -9): 0.09604 and 0.06365 and 0.0751 | log τ (efficacy, operational model, corrected for receptor expression) (A3AR WT): 1.6 ± 0.2 | ∆∆BRET Emax (A3AR WT): 0.89 ± 0.08 | Gαi1 activation response (Figure 7F), individual replicates (A3AR WT; log [agonist] -3): 1.106 and 0.8834 and 0.9675 | Gαi1 activation response (Figure 7F), individual replicates (A3AR WT; log [agonist] -4): 0.9524 and 0.7958 and 0.9068 | Gαi1 activation response (Figure 7F), individual replicates (A3AR WT; log [agonist] -5): 0.9676 and 0.6508 and 0.8035 | Gαi1 activation response (Figure 7F), individual replicates (A3AR WT; log [agonist] -6): 0.8382 and 0.5159 and 0.6976 | Gαi1 activation response (Figure 7F), individual replicates (A3AR WT; log [agonist] -7): 0.312 and 0.3966 and 0.3849 | Gαi1 activation response (Figure 7F), individual replicates (A3AR WT; log [agonist] -8): 0.0509 and 0.08839 and 0.07483 | Gαi1 activation response (Figure 7F), individual replicates (A3AR WT; log [agonist] -9): 0.1 and 0.05123 and 0.04435 | log τ (efficacy, operational model, corrected for receptor expression) (A3AR M174A^5.35): -0.1 ± 0.2 | ∆∆BRET Emax (A3AR M174A^5.35): 1.35 ± 0.01 | log τ (efficacy, operational model, corrected for receptor expression) (A3AR V169E^45.53): 1.6 ± 0.1 | ∆∆BRET Emax (A3AR V169E^45.53): 0.67 ± 0.02

CCCn1c(=O)c2c(nc3cc(OC)ccn32)n(CCCCNC(=O)c2ccc(S(=O)(=O)F)cc2)c1=O [LUF7602]
inhibition of XAC-630 binding after 4x washout ([1]; 10 μM, 4 h, 4 washing steps): wash-resistant inhibition; also recorded: retained inhibition | rebinding of XAC-630 in the washout experiments ([1]; 10 μM, 4 h, 4 washing steps): ~ 15% | NanoBRET washout assay, normalised signal (Figure S2G), individual replicates ([1]; 4 x Wash): 12.3969 and 12.724 and 15.9645 and 7.178 | NanoBRET washout assay, normalised signal (Figure S2G), individual replicates ([1]; Control (no wash)): 1.693 and 0.891 and -0.3357 and 2.202 | pKi Mean (Figure S2H) (A3AR-BRIL; BRIL, n 3): 6.94 | XAC-630 NanoBRET binding, normalised (Figure S2H), individual replicates (A3AR-BRIL; log LUF7602 -5): 0 | XAC-630 NanoBRET binding, normalised (Figure S2H), individual replicates (A3AR-BRIL; log LUF7602 -6): 22.1463 and 17.4094 and 21.7431 | XAC-630 NanoBRET binding, normalised (Figure S2H), individual replicates (A3AR-BRIL; log LUF7602 -7): 61.493 and 91.0533 and 82.952 | XAC-630 NanoBRET binding, normalised (Figure S2H), individual replicates (A3AR-BRIL; log LUF7602 -8): 66.0931 and 109.671 and 102.784 | XAC-630 NanoBRET binding, normalised (Figure S2H), individual replicates (A3AR-BRIL; log LUF7602 -9): 71.5361 and 107.819 and 104.301 | XAC-630 NanoBRET binding, normalised (Figure S2H), individual replicates (A3AR-BRIL; log LUF7602 -10): 72.9226 and 106.236 and 100.479
